Values of other authors, collected in paper PMC9096979 (ACS Omega, 2022).

Biological target: myotoxin II (Bothrops asper, UniProt P24605)
Sequence (P24605 17-137 limits assumed): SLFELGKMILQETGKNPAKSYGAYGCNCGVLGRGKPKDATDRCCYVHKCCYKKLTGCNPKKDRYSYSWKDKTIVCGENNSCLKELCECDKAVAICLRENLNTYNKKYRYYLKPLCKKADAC

**Q.** Which “inhibition of myotoxin II, in words” value does the source give for Cc1ccc(C(=O)Nc2ccc(S(=O)(=O)O)c3cc(S(=O)(=O)O)cc(S(=O)(=O)O)c23)cc1NC(=O)c1cccc(NC(=O)Nc2cccc(C(=O)Nc3cc(C(=O)Nc4ccc(S(=O)(=O)O)c5cc(S(=O)(=O)O)cc(S(=O)(=O)O)c45)ccc3C)c2)c1 [suramin] here?
**A.** The value was “capable of inhibiting myotoxin II”.
